Measured values from patent publication US20260159536A1, “AKR1C3-ACTIVATED DNA ALKYLATING AGENT, AND MEDICAL APPLICATION THEREOF” (ASCENTAWITS PHARMACEUTICALS, LTD., priority 2021, published 2026).
Like-named read-outs stand apart in the source and are kept apart here.

Assays:
[1] = system: HuPrime model GA6201 human gastric cancer; details: for Tumor volume: 60 mg/kg i.p.
Method: The test was divided into groups of the test drug Isocyclophosphamide 60 mg/kg group, the test drug AST-3424 5 mg/kg group, the test drug A compound 2.5 mg/kg and 5 mg/kg groups, and normal saline (pH 7.0-7.6) vehicle control group, a total of 5 groups, with 5 mice per group.
In the above dosing regimen, Isocyclophosphamide was designed based on the best dosing regimen with maximum safe dosage as recited in the document (Jessica D. Sun, Qian Liu, Dharmendra Ahluwalia, Damien J. Ferraro, Yan Wang, Don Jung, Mark D. Matteucci, and Charles P. Hart. Comparison of hypoxia-activated prodrug evofosfamide (TH-302) and ifosfamide in preclinical non-small cell lung cancer models [J]. Cancer Biology & Therapy, 2016, 17(4): 371-380).

[2] = in vitro; details: for metabolite AST-2660 detection: from Compound A
Method: (1) Compound A for test, progesterone positive control, and 100 mM stock solutions of AST-3021 inhibitor were prepared and stored in the freezer (−10° C. to −30° C.).
1) Negative control group: at different time points (0 and 60 min), 30 μL/well of hepatocyte cytosol suspension containing 7.5 μM of sample for test was distributed in a 96-well plate. Three replicate wells were prepared in parallel.
2) Positive control group: at different time points (0, 5, 15, 30, 45 and 60 min), 30 μL/well of hepatocyte cytosol suspension containing 7.5 μM of the positive control was distributed in a 96-well plate. Three replicate wells were prepared in parallel.
3) Normal reaction group: at different time points (0, 5, 15, 30, 45 and 60 min), 30 μL/well of hepatocyte cytosol suspension containing 7.5 μM of sample for test was distributed in a 96-well plate. Three replicate wells were prepared in parallel.
4) Inhibition reaction group: at different time points (0, 5, 15, 30, 45 and 60 min), 30 μL/well of hepatocyte cytosol suspension containing […] of sample for test and 4.5 μM of the inhibitor was distributed in a 96-well plate. Three replicate wells were prepared in parallel.
6) 0 min samples: after 150 μL/well of acetonitrile containing the internal standard was added, then 15 μL/well of pre-heated NADPH working solution was added to the samples of normal reaction group, inhibition reaction group and positive control group, and 15 μL/well of pre-heated potassium phosphate buffer was added to the samples of negative control group.
7) Other samples (5, 15, 30, 45 and 60 min): for normal reaction group, inhibition reaction group and positive control group, 15 μL/well of pre-heated NADPH working solution was added to start the reaction; for negative control group, 15 μL/well of pre-heated potassium phosphate buffer was added. The reaction plates were then continued to incubate in a 37° C. water bath and the reactions were stopped by the addition of 150 μL/well of stop solution at the corresponding time points (5, 15, 30, 45 and 60 min).
The concentration of analyte in each sample was expressed as a peak area ratio (peak area analyte/peak areainternal standard), then the peak area ratio at 0 min was used as a reference to calculate the % Remaining at each time point of the incubation, and the ln logarithmic value of the % Remaining was linearly fitted to the incubation time and the half-life was calculated according to the following formula.
In the absence of AST-3021, 5 μM of progesterone was co-incubated with 2 mM of NADPH and 1 mg/mL of hepatocyte cytosol for 0-60 min as a positive control.

[3] = Chiral stability under long-term and accelerated storage conditions; assay type: physicochemical
Method: Isomer stability under long-term and accelerated conditions was studied.
Compound A and isomers A-P1 and A-P2 were investigated for traits and isomeric stability at −20±5° C., 5° C.±3° C., 25° C.±2° C. (60%±5% RH) and 40° C.±2° C.

[4] = 60 mg/kg i.p. 5 days on, 2 days off, 2 weeks, Day 38
[5] = 25° C. ± 2° C./60% ± 5% RH, 1 month
[6] = 25° C. ± 2° C./60% ± 5% RH, 3 months
[7] = 40° C. ± 2° C./75% ± 5% RH, 1 month

## O=P1(NCCCl)OCCCN1CCCl (centres unmarked) [Isocyclophosphamide, reference compound]
[1]; [4]
  Relative tumor volume (x ± S): 3.85 ± 0.63
  T/C (%): 41.17%
  TGI (%): 58.83%
  Tumor volume (x ± S): 371.02 ± 75.96
[1]; 0 day
  Tumor volume: 94.15 mm^3
[1]; 3 days
  Tumor volume: 122.22 mm^3
[1]; 7 days
  Tumor volume: 129.39 mm^3
[1]; 10 days
  Tumor volume: 175.00 mm^3
[1]; 14 days
  Tumor volume: 190.74 mm^3
[1]; 17 days
  Tumor volume: 189.23 mm^3
[1]; 21 days
  Tumor volume: 217.96 mm^3
[1]; 24 days
  Tumor volume: 225.66 mm^3
[1]; 28 days
  Tumor volume: 247.04 mm^3
[1]; 31 days
  Tumor volume: 265.76 mm^3
[1]; 35 days
  Tumor volume: 324.51 mm^3
[1]; 38 days
  Tumor volume: 371.02 mm^3
[1]; 42 days
  Tumor volume: 403.47 mm^3
[1]; 45 days
  Tumor volume: 484.83 mm^3
[1]; 49 days
  Tumor volume: 578.60 mm^3

## CC(=O)[C@H]1CC[C@H]2[C@@H]3CCC4=CC(=O)CC[C@]4(C)[C@H]3CC[C@]12C [Progesterone]
[2]; CD-1, mouse, hepatocyte cytosol, Metabolic parameter t1/2, mouse, 2 mM NADPH, no AST-3021 (normal reaction / positive control group), 5 μM
  half-life at 5 µM: 37.7 min
[2]; SD, rat, hepatocyte cytosol, Metabolic parameter t1/2, rat, 2 mM NADPH, no AST-3021 (normal reaction / positive control group), 5 μM
  half-life at 5 µM: 22.3 min
[2]; cynomolgus (printed as 'machins'), monkey, cytosol
  half-life at 5 µM: 13.2 min
[2]; human, 2 mM NADPH, no AST-3021 (normal reaction / positive control group), 5 μM
  Metabolic parameter k: 0.0543
[2]; human, 2 mM NADPH, no AST-3021 (normal reaction / positive control group), 5 μM, 0 min
  average % Remaining: 100.00%
[2]; human, 2 mM NADPH, no AST-3021 (normal reaction / positive control group), 5 μM, 5 min
  average % Remaining: 80.76%
[2]; human, 2 mM NADPH, no AST-3021 (normal reaction / positive control group), 5 μM, 15 min
  average % Remaining: 55.69%
[2]; human, 2 mM NADPH, no AST-3021 (normal reaction / positive control group), 5 μM, 30 min
  average % Remaining: 20.59%
[2]; human, 2 mM NADPH, no AST-3021 (normal reaction / positive control group), 5 μM, 45 min
  average % Remaining: 7.72%
[2]; human, 2 mM NADPH, no AST-3021 (normal reaction / positive control group), 5 μM, 60 min
  average % Remaining: 0.46%
[2]; monkey, 2 mM NADPH, no AST-3021 (normal reaction / positive control group), 5 μM
  Metabolic parameter k: 0.0525
[2]; monkey, 2 mM NADPH, no AST-3021 (normal reaction / positive control group), 5 μM, 0 min
  average % Remaining: 100.00%
[2]; monkey, 2 mM NADPH, no AST-3021 (normal reaction / positive control group), 5 μM, 5 min
  average % Remaining: 82.47%
[2]; monkey, 2 mM NADPH, no AST-3021 (normal reaction / positive control group), 5 μM, 15 min
  average % Remaining: 59.82%
[2]; monkey, 2 mM NADPH, no AST-3021 (normal reaction / positive control group), 5 μM, 30 min
  average % Remaining: 28.19%
[2]; monkey, 2 mM NADPH, no AST-3021 (normal reaction / positive control group), 5 μM, 45 min
  average % Remaining: 10.01%
[2]; monkey, 2 mM NADPH, no AST-3021 (normal reaction / positive control group), 5 μM, 60 min
  average % Remaining: 3.26%
[2]; mouse, 2 mM NADPH, no AST-3021 (normal reaction / positive control group), 5 μM
  Metabolic parameter k: 0.0184
[2]; mouse, 2 mM NADPH, no AST-3021 (normal reaction / positive control group), 5 μM, 0 min
  average % Remaining: 100.00%
[2]; mouse, 2 mM NADPH, no AST-3021 (normal reaction / positive control group), 5 μM, 5 min
  average % Remaining: 89.61%
[2]; mouse, 2 mM NADPH, no AST-3021 (normal reaction / positive control group), 5 μM, 15 min
  average % Remaining: 78.52%
[2]; mouse, 2 mM NADPH, no AST-3021 (normal reaction / positive control group), 5 μM, 30 min
  average % Remaining: 62.61%
[2]; mouse, 2 mM NADPH, no AST-3021 (normal reaction / positive control group), 5 μM, 45 min
  average % Remaining: 44.84%
[2]; mouse, 2 mM NADPH, no AST-3021 (normal reaction / positive control group), 5 μM, 60 min
  average % Remaining: 31.03%
[2]; rat, 2 mM NADPH, no AST-3021 (normal reaction / positive control group), 5 μM
  Metabolic parameter k: 0.0311
[2]; rat, 2 mM NADPH, no AST-3021 (normal reaction / positive control group), 5 μM, 0 min
  average % Remaining: 100.00%
[2]; rat, 2 mM NADPH, no AST-3021 (normal reaction / positive control group), 5 μM, 5 min
  average % Remaining: 84.80%
[2]; rat, 2 mM NADPH, no AST-3021 (normal reaction / positive control group), 5 μM, 15 min
  average % Remaining: 69.77%
[2]; rat, 2 mM NADPH, no AST-3021 (normal reaction / positive control group), 5 μM, 30 min
  average % Remaining: 45.51%
[2]; rat, 2 mM NADPH, no AST-3021 (normal reaction / positive control group), 5 μM, 45 min
  average % Remaining: 21.61%
[2]; rat, 2 mM NADPH, no AST-3021 (normal reaction / positive control group), 5 μM, 60 min
  average % Remaining: 4.70%

## O=[N+]([O-])c1ccc(C(OP(=O)(N2CC2)N2CC2)C(F)(F)F)cc1Oc1ccc(-c2ccc(F)cc2)c(F)c1 (single isomer, unassigned) [A-P2]
[3]; 0 month
  Isomer peak A-P1: 0.25%
  Isomer peak A-P2: 99.75%
[3]; 5° C. ± 3° C., 1 month
  Isomer peak A-P1: 0.25%
  Isomer peak A-P2: 99.75%
  Isomer transformation: 0.00%
[3]; 5° C. ± 3° C., 3 months
  Isomer peak A-P1: 0.25%
  Isomer peak A-P2: 99.75%
  Isomer transformation: 0.00%
[3]; [5]
  Isomer peak A-P1: 0.25%
  Isomer peak A-P2: 99.75%
  Isomer transformation: 0.00%
[3]; [6]
  Isomer peak A-P1: 0.25%
  Isomer peak A-P2: 99.75%
  Isomer transformation: 0.00%
[3]; [7]
  Isomer peak A-P1: 0.26%
  Isomer peak A-P2: 99.74%
  Isomer transformation: 0.01%
[3]; −20° C., 5° C., 25° C./60% RH 3 months, 40° C./75% RH 1 month
  colour and chirality after storage: essentially no change
[3]; −20 ± 5° C., 3 months
  Isomer peak A-P1: 0.26%
  Isomer peak A-P2: 99.74%
  Isomer transformation: −0.01%

## O=P(O)(N1CC1)N1CC1 [AST-2660]
[2]; human, no NADPH, no AST-3021
  metabolite AST-2660 detection: not detected
[2]; human, with NADPH
  metabolite AST-2660 detection: a small amount
[2]; human, with NADPH and AST-3021
  metabolite AST-2660 detection: not detected
[2]; monkey, no NADPH, no AST-3021
  metabolite AST-2660 detection: not detected
[2]; monkey, with NADPH
  metabolite AST-2660 detection: a small amount
[2]; monkey, with NADPH and AST-3021
  metabolite AST-2660 detection: detected in only one monkey 60-min sample
[2]; mouse, no NADPH, no AST-3021
  metabolite AST-2660 detection: not detected
[2]; mouse, with NADPH
  metabolite AST-2660 detection: not detected
[2]; mouse, with NADPH and AST-3021
  metabolite AST-2660 detection: not detected
[2]; rat, no NADPH, no AST-3021
  metabolite AST-2660 detection: not detected
[2]; rat, with NADPH
  metabolite AST-2660 detection: not detected
[2]; rat, with NADPH and AST-3021
  metabolite AST-2660 detection: not detected
